Here are results for 1 molecule from patent US20190307820A1, “COMPOSITIONS AND METHODS OF USING STAT1/3 INHIBITORS WITH ONCOLYTIC HERPES VIRUS” (priority 2016, published 2019).

pIC50: −log10 of the molar value. Read-outs that look alike come from different tables or passages of the source.

Common to all, as to type: cell-based
In one experiment the target is T1, STAT1 (Mus musculus, UniProt P42225).
T1 construct: Total protein was extracted after 24 hours and subjected to western blot analysis; endogenous in cells; host or cells: CT26 cells, with or without HrR3 infection
T1 sequence (P42225 whole entry): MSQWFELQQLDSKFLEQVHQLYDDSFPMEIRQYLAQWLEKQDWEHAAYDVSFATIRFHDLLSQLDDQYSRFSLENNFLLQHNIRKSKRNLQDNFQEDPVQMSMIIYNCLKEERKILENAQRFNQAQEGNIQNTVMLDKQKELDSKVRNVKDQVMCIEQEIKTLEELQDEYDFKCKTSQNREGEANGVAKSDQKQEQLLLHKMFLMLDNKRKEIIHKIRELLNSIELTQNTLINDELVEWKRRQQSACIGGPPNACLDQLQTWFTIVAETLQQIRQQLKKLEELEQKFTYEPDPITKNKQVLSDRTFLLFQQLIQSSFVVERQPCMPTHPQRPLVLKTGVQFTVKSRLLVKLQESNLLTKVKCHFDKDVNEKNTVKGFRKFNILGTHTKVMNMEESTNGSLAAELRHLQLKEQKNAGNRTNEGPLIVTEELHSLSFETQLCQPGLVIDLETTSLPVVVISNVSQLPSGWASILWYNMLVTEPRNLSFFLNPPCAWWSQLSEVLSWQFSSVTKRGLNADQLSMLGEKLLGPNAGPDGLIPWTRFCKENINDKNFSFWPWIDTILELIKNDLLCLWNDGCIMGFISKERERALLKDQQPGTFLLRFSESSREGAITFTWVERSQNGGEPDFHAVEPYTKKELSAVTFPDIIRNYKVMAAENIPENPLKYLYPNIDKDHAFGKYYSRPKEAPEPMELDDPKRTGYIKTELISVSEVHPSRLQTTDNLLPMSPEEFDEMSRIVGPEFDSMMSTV
Put plainly: Western blot of STAT1 phosphorylation in CT26 cells. The conditions noted are these: 24 hours. The method, then:
FIG. 19A and FIG. 19B, U87 cells (A) or CT26 cells (B) were treated with the indicated concentrations of HrR3 or NF or a combination. Total protein was extracted after 24 hours and subjected to western blot analysis. Band intensity was measured using Image J software and normalized to β-actin. Samples were run in triplicate and data are as means±S.E. Statistically significant differences are indicated by P<0.05 or P<0.01. FIG. 19C, Mice subcutaneously bearing U87 tumors were intratumorally injected with a single dose of HrR3 virus (1×10^6 PFU) and/or peritoneally injected doses of NF as indicated. Tumors were harvested on day 10 post treatment and total protein was extracted from a mouse of each treatment group and subjected to western blot analysis in triplicate. Results are reported as means±S.E.
NF is a known inhibitor of STAT1 and STAT3. To evaluate the underlying molecular mechanism of the anti-tumour effect of the NF and oHSV-1 combination, the STAT1 and STAT3 status in U87 cells (FIG. 19A) and CT26 cells (FIG. 19B) cells was determined after an overnight treatment with NF and oncolytic viruses.
Background: Immunoblotting shows a protein as a band on a membrane.

Another experiment deals with U87 cells. Put plainly: MTT cytotoxicity assay, U87 cells. Conditions: Homo sapiens, U-87 MG. The method, then:
(FIG. 5A) U87 cells were treated with HrR3 at a MOI of 5 and indicated concentration of nifuroxazide for 6 hours. Extracted protein was then subjected to western blot assay. (FIG. 5B) U87 cells were treated with indicated concentration of HrR3 or nifuroxazide or stattic or in combination for 72 hours. Cytotoxicity was measured by MTT assay. (FIG. 5C) Relative mRNA level (2^−ΔΔCT) is shown. Data are presented as mean SD, *P<0.05 vs corresponding vehicle treatment.
Expression of key regulator of the Type1 interferon signaling, STAT1 and STAT3, was determined in nifuroxazide treated oHSV-1 infected U87 cells.
(In general: Tetrazolium assays rely on reduction of a dye to a coloured formazan, in cell work by metabolically active cells.)

For experiment [1], the system named is CT26, LL2, U87, B16, 4T1 tumor cells. The experiment is described as follows: Cell survival (MTT) of tumor cell panel with nifuroxazide and/or virus. The conditions noted are these: nifuroxazide 0-100 μM. From the text:
FIGS. 7A-7L show results of treatment of tumor cells with nifuroxazide and oHSV-1. FIG. 7A-7C show cell survival for tumor cells CT26, LL2 and U87 treated with nifuroxazide or HrR3 or KOS. FIG. 7D-7G show cell survival of tumor cells, U87, CT26, 4T1 and LL2, treated first with nifuroxazide and then HrR3 virus. FIG. 7H-7K show combination index (CI) values for tumor cells treated with varying doses of nifuroxazide or the viruses, HrR3 or KOS, or VG12TR, alone or in combination. FIG. 7L is a table presenting the dose reduction index for a combination of nifuroxazide and HrR3 virus.
In this example, the effect of nifuroxazide and oHSV-1 on tumor cells was evaluated. A variety of cancer cell types were treated with nifuroxazide (from 0-100 μM) or HrR3 virus at a MOI from 0 to 12.5 or KOS virus at a MOI from 1 to 12.5. Cell survival was measured.
Tumor cells were treated with nifuroxazide or medium. Following incubation, virus was added and further incubated for 72 (FIG. 7D) or 48 hrs (FIG. 7E-7G). Cytotoxicity was measured by an MTT assay. […]
If FIG. 7H-7K, cells were treated with varying doses of nifuroxazide or the indicated viruses (HrR3, KOS, or VG12TR) alone or in combination for 48 hrs (7J, 7K) or 72 hrs (7H) Cell viability was measured by a MTT assay and combination index (CI) values were calculated using Chour-Talalay analysis. […]

The next experiment has as its system SF126 cells. Put plainly: MTT cytotoxicity assay, SF126 cells. The conditions noted are these: Homo sapiens, SF-126, 72 hours, read-out: Inhibitory concentration 50% (IC50). The method, then: FIGS. 1A-1B are graphs that show an anti-tumor effect of nifuroxazide. (FIG. 1A) Cells were treated with indicated concentration of nifuroxazide for 72 hours. Cytotoxicity was measured by using MTT assay. (FIG. 1B) Subcutaneously U87 tumor bearing mice were peritoneally injected with indicated doses of nifuroxazide. Tumor size was measured using calipers at day 7 post nifuroxazide treatment.
In this example, the antitumor effect of nifuroxazide is evaluated in different tumor cells. Cells were treated with nifuroxazide for 72 hours (FIG. 1A). […] To verify the anti-tumor efficacy of nifuroxazide in vivo, animals with subcutaneous U87 tumor implants were injected in the peritoneum with vehicle, 1 mg/kg nifuroxazide and 50 mg/kg nifuroxazide. […] Tumor volume was reduced around 25% and 60% after 7 days treatment with 1 mg/kg nifuroxazide and 50 mg/kg nifuroxazide respectively (FIG. 1B).
Cells were seeded in a 96-well plate at a density of 1×104 (U87). After overnight incubation, cells were treated with only vehicle or indicated MOI of virus or indicated concentration of drugs or reagents. After 2 to 3 days of treatment cell viability was measured by MTT assay (Sigma, Canada) according to the manufacturer's instruction. […] After overnight incubation with lysis buffer, cell viability was measured at 595 nm using a plate reader (Envision 2103 Multilabel reader, Perkin Elmer).

Consider `O=C(N/N=C/c1ccc([N+](=O)[O-])o1)c1ccc(O)cc1` [nifuroxazide, Benzoic acid, 4-hydroxy-, [(5-nitro-2-furanyl)metylene]hydrazide], for which the “HrR3 induced upregulation of STAT1 phosphorylation” value on STAT1 is recorded as “effectively suppressed”. For the same molecule, the “phosphorylation of STAT1” value at STAT1 (NF alone) is “dose dependent inhibition”. Also, the pIC50 was ~5.40 in the experiment with U87 cells (in combination with MOI of 1 HrR3, 72 hours, read-out: IC50, nifuroxazide dose in combination); ~4.70 with U87 cells (individual dose, 72 hours, MTT assay, read-out: Inhibitory concentration 50% (IC50)); ~4.70 with SF126 cells. Besides, the Cell survival entry in experiment [1] is “caused cell mortality in all cell lines at higher doses”.
